Results: US8318801B2, “Cinnamic compounds and derivatives therefrom for the inhibition of histone deacetylase” (Naturewise Biotech & Medicals Corporation, priority 2009, dated 2012)
Entries after “also recorded” stand apart in the source; their conditions may differ.

Legend:
Type in all cases: cell-based
[1] = tested on: acetyl-Histone H3 in Human lung cancer A549 cells; test: Immunostaining of HDAC associated proteins; settings: 7.5 μg/mL, 6 hrs (FIG. 3(c))
Procedure: (§1) Rat C6 glioma cells, Human breast cancer MCF-7 cells, and Human lung cancer A549 cells were seeded in 6-well plates. After 24 hrs of incubation in medium+10 BSA, Human breast cancer MCF-7 cells were treated with NBM-HB-OS01 (10.0 μg/mL) and vorinostat (SAHA, 5 μM) for 24 hours. Rat C6 glioma cells were treated with NBM-C-BX-OS01 (7.5 μg/mL) and vorinostat (SAHA, 5 μM) for 6 hours. Human lung cancer A549 cells were treated with NBM-C-BA-OS01 (7.5 μg/mL) and vorinostat (SAHA, 5 μM) for 6 hours. The treated cells were fixed in 80% methanol for 30 minutes and then washed 3 times with PBS solution. Cells were permeabilized with 0.3% Triton X-100 for 30 minutes, and then blocked in 10% fetal bovine serum (FBS) in PBS-T (0.1% Twin 20 in PBS) for 1 hour. The treated cells were detected with primary antibody against acetyl-Histone H3, acetyl-tubulin, and Gelsolin.

Rat C6 glioma cells = test: Inhibition of cancer cell growth and change of morphology; settings: for inhibition of cell growth: Rat C6 glioma cells
Procedure: (§2) Three cancer cell lines, Rat C6 giloma cells, Human breast cancer MCF-7 cells, and Human lung cancer A549 cells, were cultured in Dulbecco's modified Eagle's medium (DMEM; Gibco) containing 10% fetal bovine serum (FBS) and 1% penicillin/streptomycin. All three cell lines were maintained at 37° C. in a humidified atmosphere of 95% air and 5% CO2. For the experiments, the cells were seeded in 6-well plates. After 24 hours, the cells were treated with different concentrations of the various compounds.
(§3) Five cancer cell lines, Rat C6 giloma cells, Human breast cancer MCF-7 cells, Human glioma Hs683 cells, Human glioblastoma 05-MG cells, and Human lung cancer A549 cells, were cultured in Dulbecco's modified Eagle's medium (DMEM; Gibco) containing 10% fetal bovine serum (FBS) and 1% penicillin/streptomycin, and were kept at 37° C. in a humidified atmosphere of 95% air and 5% CO2. Human breast cancer. MDA-MB-231 cells were cultured in L-15 medium (Gibco) containing 10% fetal bovine serum (FBS), 1% penicillin/streptomycin, and 2 mM glutamine, and were maintained at 37° C. in a humidified atmosphere of 95% air and 0% CO2. For these experiments, the cells were seeded in 6-well plates or a 60-mm dish. After 24 hours, the cells were treated with different concentrations of the various compounds. […] Human glioblastoma 05-MG cells were treated with NBM-C-BCX-OS01 (1.0, 2.0, 4.0 μg/mL) and NBM-C-BMX-OS01 (1.0, 2.0, 4.0 μg/mL) for 72 hours (see FIG. 5(e)). […] The results were counted by a trypan blue exclusion assay (see FIG. 6(b)).

[2] = tested on: Human breast cancer MCF-7 cells; test: as above
Procedure: as §2, §3

[3] = tested on: acetyl-Histone H3, acetyl-Histone H4, acetyl-tubulin, p21 in Human breast cancer MCF-7 cells; test: Immunoblotting of hyperacetylated histone, tubulin and p21; settings: 10 μg/mL (7.5 μg/mL elsewhere in the source) for 1, 2, 3 and 4 hrs (FIG. 2(d))
Procedure: (§4) Rat C6 glioma cells and Human breast cancer MCF-7 cells were seeded 5×10^5 cells in a 60-mm dish or 1×10^6 cells in a 100-mm dish. After 24 hours, Rat C6 glioma cells were treated with various concentrations of NBM-HB-OS01 (2.5, 5.0, 7.5, 10.0 μg/mL) for 72 hours and were treated with 10.0 μg/mL. NBM-HB-OS01 for 1, 2, 3, and 4 hours. Human breast cancer MCF-7 cells were treated with 7.5 μg/mL NBM-C-BX-OS01 for 1, 2, 3, and 4 hours.

[4] = tested on: acetyl-tubulin in Rat C6 glioma cells; test: Immunostaining of HDAC associated proteins; settings: 7.5 μg/mL, 6 hrs (FIG. 2(e))
Procedure: as §1

[5] = tested on: Human lung cancer A549 cells; test: Inhibition of cancer cell growth
Procedure: as §2, §3

[6] = tested on: acetyl-Histone H3, acetyl-Histone H4, acetyl-tubulin, p21 in Rat C6 glioma cells; test: Immunoblotting of hyperacetylated histone, tubulin and p21
Procedure: as §4

[7] = tested on: p21 mRNA in Rat C6 glioma cells; test: RT-PCR of cell-cycle related mRNA expression; settings: 48 hrs, GAPDH internal control (FIG. 1(d))
Procedure: The cell-cycle related mRNA expression was examined by RT-PCR. The total RNA was isolated from the treated Rat C6 glioma cells using the RNeasy Mini Kit (Qiagen) as described by the manufacturer. The cDNA was produced from 500 ng of total RNA using ReverTra-Plus™ (TOYOBO).

[8] = tested on: Gelsolin in Human breast cancer MCF-7 cells; test: Immunostaining of HDAC associated proteins; settings: 10 μg/mL, 24 hrs (FIG. 1(g))
Procedure: as §1

[9] = tested on: Human colon cancer HT-29 cells; test: Inhibition of cancer cell growth; settings: various concentrations, 48 hrs (FIG. 1(b))
[10] = tested on: Human lung cancer A549 cells; test: Cell cycle analysis by flow cytometry (propidium iodide); settings: A549 cells, 2.5, 5.0, 7.5, 10.0 μg/mL, 24 hours (FIG. 1(c))
Procedure: Human lung cancer A549 cells, Human glioma Hs683 cells and Human glioblastoma 05-MG cells were seeded 1×10^6 cells in a 100-mm dish. After 24 hours of incubation in DMEM+10% BSA, Human lung cancer A549 cells were treated with NBM-HB-OS01 (2.5, 5.0, 7.5, 10.0 μg/mL) for 24 hours and were treated with NBM-C-BCX-OS01 (2.5, 5.0, 7.5 μg/mL) and NBM-C-BMX-OS01 (2.5, 5, 7.5 μg/mL) for 72 hours. Human glioblastoma 05-MG cells were treated with NBM-C-BCX-OS01 (1.0, 2.0, 4.0 μg/mL) and NBM-C-BMX-OS01 (1.0, 2.0, 4.0 μg/mL) for 72 hours. Human glioma Hs683 cells were treated with NBM-C-BCX-OS01 (1.0, 2.0, 4.0 μg/mL). For cell cycle analysis, cells were fixed in 80% ethanol for 1 hour (or overnight) at −20° C. and then incubated with 2 μg/mL RNase A for 30 minutes at 37° C. Cells were stained with propidium iodide ([…] PI) in PBS and analyzed using a Becton Dickinson flow cytometer, BD FACScan and CellQuest acquisition and analysis programs. […] Human glioma Hs683 cells were treated with NBM-C-BCX-OS01 (1.0, 2.0, 4.0 μg/mL) for 72 hours.

[11] = various concentrations, 48 hrs (FIG. 1(a), 2(a))
[12] = Rat C6 glioma cells, 2.5, 5.0, 7.5, 10.0 μg/mL, 72 hrs, western blotting (FIG. 1(e))

Structure (SMILES): COc1ccc(/C=C/C(=O)Nc2ccccc2N)c(OCc2ccccc2)c1CC=C(C)C [NBM-C-BA-OS01, (E)-2-Benzoxy-3-prenyl-4-methoxy-N-(2-aminophenyl) cinamide]
- acetylation of Histone H3 protein [1]: Hyperacetylation of Histone H3 protein was detected; also recorded: could induce the HDAC associated proteins expression
- inhibition of cell growth (Rat C6 glioma cells; 7.5 μg/mL, 48 hrs (FIG. 4)): inhibited the Rat C6 glioma cell growth
- changes in morphology (Rat C6 glioma cells; Rat C6 glioma cells, 2.5, 5.0, 7.5 μg/mL, 72 hrs (FIG. 3(b))): exhibited changes in morphology
- inhibition of cell growth (Rat C6 glioma cells; 24 hrs, NBM-C-BA-OS01 5 μg/mL, others 2.5, 5.0 μg/mL (FIG. 5(a))): inhibited the cell growth
- changes in morphology ([2]; MCF-7 cells, 2.5, 5.0, 7.5 μg/mL, 72 hrs (FIG. 3(a))): exhibited changes in morphology

Structure (SMILES): COc1ccc(/C=C\C(=O)NO)c(OCc2ccccc2)c1CC=C(C)C [NBM-C-BX-OS01, (Z)-2-Benzoxy-3-prenyl-4-methoxy-N-hydroxy-cinamide]
- expression of acetylated H3 [3]: increased in a dose-dependent manner
- expression of acetylated H4 [3]: increased in a dose-dependent manner
- expression of acetylated-tubulin [3]: increased in a dose-dependent manner
- expression of p21 [3]: increased in a dose-dependent manner
- acetylated tubulin protein expression [4]: Overexpression of acetylated tubulin protein was observed; also recorded: could induce the HDAC associated proteins expression
- cell growth inhibition ([5]; 72 hrs, NBM-C-BX-OS01 7.5, others 2.5, 5.0, 7.5 μg/mL (FIG. 5(b))): induced A549 cells growth inhibition in a dose-dependent manner; also recorded: induced A549 cell growth inhibition in dose-dependent amounts
- inhibition of cell growth ([5]; various concentrations, 48 hrs (FIG. 2(c))): Inhibition of cancer cells growth was shown; also recorded: arrested the cell growth
- inhibition of cell growth (Rat C6 glioma cells; [11]): Inhibition of cancer cells growth was shown; also recorded: arrested the cell growth
- inhibition of cell growth ([2]; MCF-7 cells, various concentrations, 24 hrs (FIG. 2(b))): Inhibition of cancer cells growth was shown; also recorded: arrested the cell growth

Structure (SMILES): COc1ccc(/C=C\C(=O)OCc2ccccc2)c(OCc2ccccc2)c1CCC(C)(C)O [NBM-HB-OS01]
- accumulation of p21 ([6]; Rat C6 glioma cells, 10 μg/mL for 1, 2, 3 and 4 hrs (FIG. 1(f))): seen in a dose-dependent manner
- accumulation of hyperacetylated histone H3 [6, 12]: detected in a dose-dependent manner
- accumulation of hyperacetylated histone H4 [6, 12]: detected in a dose-dependent manner
- accumulation of p21 [6, 12]: detected in a dose-dependent manner
- p21 mRNA (gene) expression [7]: increased p21 gene expression; also recorded: induced p21 mRNA expression
- Gelsolin protein expression [8]: Overexpression of Gelsolin protein was observed; also recorded: could induce the HDAC associated proteins expression
- inhibition of cell growth (Rat C6 glioma cells; [11]): Inhibition of cancer cell growth
- inhibition of cell growth (Rat C6 glioma cells; various concentrations, 48 hrs (FIG. 1(a), 2(a)), listed as NBM-HB-HB-OS01): Inhibition of cancer cells was shown
- inhibition of cell growth [9]: Inhibition of cancer cell growth
- inhibition of cell growth ([9]; listed as NBM-HB-HB-OS01): Inhibition of cancer cells was shown
- cell cycle arrest phase [10]: arrested the human lung cancer A549 cells on the G0/G1 phase in a dose-dependent manner
